One data set deals with P. falciparum W2. Description: P. falciparum W2 proliferation assay. The format is cell-based. To be noted: Plasmodium falciparum, imidazolopiperazine hits, mean of two experiments. The text has this: (§1) We screened both our in-house compound collection (~2.3M compounds) and natural products library (12,000 compounds) using a cell based Plasmodium falciparum proliferation assay. This screen provided data on a large number of chemically diverse anti-malarial compounds. These nearly 5700 hits have been deposited into the public EBI database by GNF/Novartis. A number of these hits originated from kinase-directed libraries and many of which are pan-kinase inhibitors. De-convoluting and eliminating inherent kinase activity with many of these scaffolds while maintaining cellular potency was the first step in the hit-to-lead phase for these particular chemotypes. What follows is a summary of the chemical optimization of some kinase-like and non-kinase scaffolds which came out of the whole-cell screening effort.

Another data set concerns P. falciparum 3D7. Put plainly: P. falciparum 3D7 proliferation assay. In kind it is cell-based, Plasmodium falciparum. To be noted: Plasmodium falciparum, 3D7; imidazolopiperazine hits; mean of two experiments; read-out: P. falciparum 3D7 EC50.
Source text: as §1

A further data set deals with Huh7. To be noted: human.
Data set [1] deals with panel of cytochrome P450 isoforms. Description: in vitro.
Another data set deals with hERG (Homo sapiens, UniProt Q12809). Description: hERG binding assay. Background: The hERG channel carries a current that helps repolarise heart muscle cells.
Another data set can be described thus: aqueous solubility. In kind it is physicochemical. To be noted: aqueous medium, pH 6.8, aqueous buffer.
Data set [2] deals with Plasmodium berghei. Put plainly: P. berghei murine model. In kind it is in vivo.
Data set [3] deals with P. falciparum NF54. Details: method as in PMID 20813948. To be noted: Fig. 4; cited from earlier work.
For data set [4], the system named is chloroquine-resistant K1 P. falciparum strain. More on the design: method as in PMID 20813948. To be noted: Fig. 4; cited from earlier work.
Another data set is described as follows: PAMPA permeability assay. The format is in vitro ADME. The text has this:
Access to these types of in vitro assays, both within industry and academia, can greatly accelerate the drug discovery process.

Another data set in a line: in vivo. To be noted: mouse, po.
For data set [5], the system named is Plasmodium berghei. More on the design: method as in earlier work. To be noted: single oral dose at 100 mg/kg; cited from earlier work.
Data set [6] concerns P. falciparum NF54. Put plainly: P. falciparum NF54 in vitro potency. In kind it is cell-based. To be noted: Plasmodium falciparum, spiroindolones, Tables 8 and 9.
Data set [7] in a line: metabolic stability in mouse liver microsomes. The format is in vitro ADME. Background: Liver microsomes are vesicles of endoplasmic reticulum, rich in cytochrome P450 enzymes.
Data set [8] is described as follows: metabolic stability in human liver microsomes. The format is in vitro ADME.
Data set [9] has as its target QM-PfDHFR (quadruple mutant PfDHFR). Details: method as in PMID 20350951. To be noted: cited from earlier work.
The next data set addresses hDHFR (human DHFR). More on the design: method as in PMID 20350951. To be noted: cited from earlier work.
Data set [10] can be described thus: 2-week rat toxicology study. In kind it is in vivo.
In data set [11] the target is WT-PfDHFR (wild type PfDHFR). More on the design: method as in PMID 20350951. To be noted: cited from earlier work.
Another data set concerns wild type P. falciparum. Details: method as in PMID 20350951. To be noted: read-out: EC50 on wild type P. falciparum in vitro; cited from earlier work.
The mark [12] stands for this setting: intrinsic clearance, high clearance corresponds to low stability.

In brackets after ≈: the same amount, converted by molar mass. Like-named read-outs stand apart in the source and are kept apart here. Marks after values point to notes of the source that are not given here.

In general, EC50 refers to the concentration at which the effect is half-maximal. A word on the IC50: it is the concentration at which inhibition is half-maximal. A lower IC50 goes with higher potency. Usually solubility stands for how much of the substance goes into solution per volume. For orientation: Cmax means the highest concentration seen after dosing. What is called bioavailability is the share of a dose that reaches the circulation, judged against a reference dose that is usually intravenous. The Ki is a dissociation constant, usually derived from enzyme kinetics or from competition with a known ligand.

Chain of hERG (Q12809 whole entry): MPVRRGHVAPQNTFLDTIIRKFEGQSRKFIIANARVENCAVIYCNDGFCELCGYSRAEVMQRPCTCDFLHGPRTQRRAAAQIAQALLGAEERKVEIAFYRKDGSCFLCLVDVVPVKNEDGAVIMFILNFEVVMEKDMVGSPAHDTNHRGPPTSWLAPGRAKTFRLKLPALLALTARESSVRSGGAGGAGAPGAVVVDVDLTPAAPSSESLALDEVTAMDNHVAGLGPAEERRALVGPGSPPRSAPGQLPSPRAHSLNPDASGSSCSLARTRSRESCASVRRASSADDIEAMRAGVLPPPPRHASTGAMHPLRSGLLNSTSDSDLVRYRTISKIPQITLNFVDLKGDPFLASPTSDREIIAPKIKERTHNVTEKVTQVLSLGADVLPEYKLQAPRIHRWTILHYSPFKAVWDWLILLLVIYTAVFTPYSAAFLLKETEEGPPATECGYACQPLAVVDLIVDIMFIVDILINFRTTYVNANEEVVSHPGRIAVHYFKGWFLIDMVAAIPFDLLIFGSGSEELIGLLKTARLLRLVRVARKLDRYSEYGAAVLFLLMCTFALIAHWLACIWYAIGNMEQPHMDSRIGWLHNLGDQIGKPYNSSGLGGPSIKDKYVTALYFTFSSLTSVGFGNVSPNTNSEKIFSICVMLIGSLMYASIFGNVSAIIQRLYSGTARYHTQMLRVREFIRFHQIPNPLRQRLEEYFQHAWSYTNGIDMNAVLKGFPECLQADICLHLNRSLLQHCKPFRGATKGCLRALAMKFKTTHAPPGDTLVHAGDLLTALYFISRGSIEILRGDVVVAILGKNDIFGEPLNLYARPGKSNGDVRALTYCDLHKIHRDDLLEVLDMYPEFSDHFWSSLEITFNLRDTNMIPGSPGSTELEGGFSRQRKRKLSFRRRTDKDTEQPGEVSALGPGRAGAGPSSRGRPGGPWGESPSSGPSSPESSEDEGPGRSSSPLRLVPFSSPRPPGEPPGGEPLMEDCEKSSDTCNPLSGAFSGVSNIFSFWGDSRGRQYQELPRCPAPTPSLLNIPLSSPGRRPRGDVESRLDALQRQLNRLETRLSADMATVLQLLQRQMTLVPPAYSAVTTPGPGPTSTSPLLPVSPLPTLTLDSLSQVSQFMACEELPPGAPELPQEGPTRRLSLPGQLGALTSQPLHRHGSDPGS

Turning to `NCC(=O)N1CCn2c(nc(-c3ccccc3)c2Nc2ccc3c(c2)OCO3)C1` [Compound 18a], the EC50 with P. falciparum W2 was found to be 97 nM; in the data set with P. falciparum 3D7 it was 63 nM. Further, the “Cytotoxicity (µM) Huh7” value with Huh7 is over 10 µM. The IC50 in data set [1] was over 10 µM; at hERG, 19 µM. This molecule also displayed a solubility in “aqueous solubility” of over 175 µM.
On to `CC1CCc2c([nH]c3ccccc23)C2(N1)C(=O)Nc1ccc(Br)cc12` (stereo not drawn) [Compound 21], for which, in the data set on Plasmodium berghei [2] (single oral dose of 100 mg/kg), the mouse survival result is “slight prolongation in mouse survival over control” and the reduction in parasitemia was determined as 96%. In “in vivo PK in mouse” (in vivo, po, 25 mg/kg), this molecule had a Cmax of 1400 nM and a bioavailability of 59%. Also, the “oral T1/2” value in “in vivo PK in mouse” (single 25 mg/kg oral dose) is listed as “four”. For the same molecule, the concentration for a half-maximal effect (EC50) with P. falciparum NF54 [3] is 90 nM. Moreover, the concentration giving a half-maximal response (EC50) in [4] is 80 nM. The “permeability in a PAMPA assay” value in “PAMPA permeability assay” was found to be 99%. This molecule registered a solubility in the data set “aqueous solubility” of 75 µM (≈ 29.7 µg/mL).
Regarding `C[C@H]1Cc2c([nH]c3cc(Cl)c(F)cc23)[C@@]2(N1)C(=O)Nc1ccc(Cl)cc12` [Compound 30], the bioavailability in the data set “in vivo” is 100%. Also, the “clearance of P. berghei infection” value with Plasmodium berghei [5] is on record as “completely cleared a P. berghei infection in all treated mice”. This molecule yielded an EC50 with P. falciparum NF54 [6] of 0.9 nM. The half-life in “in vivo PK in mouse” (in vivo, po) was 600 min; in [7] (mouse, liver microsomes, read-out: Liver Microsomes t1/2 (min), Mouse) it was 49 min; in data set [8] (human, liver microsomes, read-out: Liver Microsomes t1/2 (min), Human), 76 min. For the same molecule, the “Liver Microsomes CLint, Mouse” value in [7] (setting [12]) is reported as “Low”. The “Liver Microsomes CLint, Human” value in [8] (setting [12]) is recorded as “Low”.
With `COc1ccc(OC)c(CNc2ccc3nc(N)nc(N)c3c2Cl)c1` [QN254, 5-Chloro-N'6'-(2 5 di-methoxy-benzyl)-quinazoline-2 4 6-triamine], the inhibition constant Ki was 0.58 ± 0.06 nM in data set [9], 10.2 ± 0.6 nM on hDHFR (human DHFR) and 0.39 ± 0.05 nM in data set [11]. The entries for the “Cure Rate (%)” value in the data set with Plasmodium berghei [2] (3 x 30 (mg/kg)), in the data set on Plasmodium berghei [2] (3 x 60 (mg/kg)) and with Plasmodium berghei [2] (3 x 100 (mg/kg)) were 80%, 60% and 20%, respectively. Moreover, the “Toxicity Rate (%)” value in the data set on Plasmodium berghei [2] (3 x 30 (mg/kg)) is 0%; in the data set with Plasmodium berghei [2] (3 x 60 (mg/kg), mice died around day 10 and were parasite free), 40^b %; in the data set on Plasmodium berghei [2] (3 x 100 (mg/kg), mice died around day 10 and were parasite free), 80^b %. In addition, the “Average Survival” value with Plasmodium berghei [2] (3 x 30 (mg/kg), control survival 5.6 to 6.2 days) is 28.4 days. For the same molecule, the “Parasitemia Reduction (%)” value in the data set on Plasmodium berghei [2] (3 x 60 (mg/kg)) is listed as over 99.99%; in the data set on Plasmodium berghei [2] (3 x 100 (mg/kg)), over 99.99%; in the data set on Plasmodium berghei [2] (dosing regimen 3 x 30 (mg/kg), oral, compared to untreated controls), over 99.99%. In addition, the histopathological analysis entry in data set [10] (2-week toxicology study) was “significant gastrointestinal and bone marrow toxicity”. Moreover, the tolerability entry in [10] (2 weeks, repeated oral administration of greater than 50 mg/kg) is reported as “not tolerated”. In addition, the EC50 in the data set on wild type P. falciparum was 9 nM.

The record behind these values is article PMC3355380, “Back to the Future: Lessons Learned in Modern Target-based and Whole-Cell Lead Optimization of Antimalarials” (Current Topics in Medicinal Chemistry, 2012).
